Measurements from BigSolDB 2.1.

Which results are given for Oc1cc(O)c2cc(O)c(-c3cc(O)c(O)c(O)c3)[o+]c2c1.[Cl-]?
solubility (mole fraction) (in acetone, 298.15 K): 5.5e-11; solubility (mole fraction) (in acetone, 303.15 K): 6.6e-11; solubility (mole fraction) (in acetone, 308.15 K): 7.1e-11; solubility (mole fraction) (in acetone, 313.15 K): 7.7e-11; solubility (mole fraction) (in acetone, 318.15 K): 8.7e-11; solubility (mole fraction) (in acetone, 323.15 K): 9.8e-11; solubility (mole fraction) (in acetone, 328.15 K): 1.06e-10; solubility (mole fraction) (in acetone, 333.15 K): 1.24e-10; solubility (mole fraction) (in acetone, 338.15 K): 1.35e-10; solubility (mole fraction) (in acetone, 343.15 K): 1.57e-10; solubility (mole fraction) (in ethanol, 298.15 K): 5.73e-08; solubility (mole fraction) (in ethanol, 303.15 K): 6.13e-08; solubility (mole fraction) (in ethanol, 308.15 K): 7.04e-08; solubility (mole fraction) (in ethanol, 313.15 K): 7.7e-08; solubility (mole fraction) (in ethanol, 318.15 K): 8.59e-08; solubility (mole fraction) (in ethanol, 323.15 K): 9.8e-08; solubility (mole fraction) (in ethanol, 328.15 K): 1.06e-07; solubility (mole fraction) (in ethanol, 333.15 K): 1.23e-07; solubility (mole fraction) (in ethanol, 338.15 K): 1.37e-07; solubility (mole fraction) (in ethanol, 343.15 K): 1.56e-07; solubility (mole fraction) (in methanol, 298.15 K): 5.86e-07; solubility (mole fraction) (in methanol, 303.15 K): 6.62e-07; solubility (mole fraction) (in methanol, 308.15 K): 7.71e-07; solubility (mole fraction) (in methanol, 313.15 K): 8.77e-07; solubility (mole fraction) (in methanol, 318.15 K): 9.71e-07; solubility (mole fraction) (in methanol, 323.15 K): 1.05e-06; solubility (mole fraction) (in methanol, 328.15 K): 1.26e-06; solubility (mole fraction) (in methanol, 333.15 K): 1.4e-06; solubility (mole fraction) (in methanol, 338.15 K): 1.53e-06; solubility (mole fraction) (in methanol, 343.15 K): 1.69e-06; solubility (mole fraction) (in water, 298.15 K): 5.35e-07; solubility (mole fraction) (in water, 303.15 K): 6.39e-07; solubility (mole fraction) (in water, 308.15 K): 6.98e-07; solubility (mole fraction) (in water, 313.15 K): 7.87e-07; solubility (mole fraction) (in water, 318.15 K): 8.69e-07; solubility (mole fraction) (in water, 323.15 K): 1.02e-06; solubility (mole fraction) (in water, 328.15 K): 1.11e-06; solubility (mole fraction) (in water, 333.15 K): 1.24e-06; solubility (mole fraction) (in water, 338.15 K): 1.48e-06; solubility (mole fraction) (in water, 343.15 K): 1.64e-06
